Assay results taken from patent US20090270350A1, “Pyridinone Pyrazole Urea and Pyrimidinone Pyrazole Urea Derivatives” (PFIZER INC., priority 2006, published 2009).
Blank lines part the entries; values can stand above or below the compound they belong to.

Experiments:
p38α = p38α (Homo sapiens, UniProt Q16539); assay: p38α/MK2 cascade assay; type: biochemical; details: Table 1; inhibitors preincubated with p38α for 40 minutes; phosphorylation of Hsp27 peptide by MK-2, Caliper LabChip 3000; read-out: p38a/MK2 Cascade 40 min Pre-Incuabtion (% Inhibition): IC50
Chain of p38α (Q16539 whole entry): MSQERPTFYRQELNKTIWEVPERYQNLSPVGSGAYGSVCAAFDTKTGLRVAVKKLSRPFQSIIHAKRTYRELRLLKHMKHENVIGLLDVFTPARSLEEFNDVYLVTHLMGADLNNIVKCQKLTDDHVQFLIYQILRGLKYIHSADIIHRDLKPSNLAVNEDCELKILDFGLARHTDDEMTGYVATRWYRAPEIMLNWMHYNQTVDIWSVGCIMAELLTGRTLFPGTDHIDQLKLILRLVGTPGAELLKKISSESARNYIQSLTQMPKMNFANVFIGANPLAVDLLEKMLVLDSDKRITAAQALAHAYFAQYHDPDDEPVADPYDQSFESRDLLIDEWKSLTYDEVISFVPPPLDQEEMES
Procedure, shortened: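 In a cascade format, p38α was preincubated 40 min with inhibitor (1000–0.05 nM) before adding 1 nM nonactive MK2 (54-400), 5 μM MgATP and 0.5 μM FITC-Hsp27 peptide. Reaction ran 60 min in HEPES pH 7.5 with MgCl2, DTT, 2% DMSO, then EDTA-quenched. Peptide phosphorylation was measured by Caliper mobility shift to give IC50.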

SMILES: Cc1ccc(C(=O)NC(C)C(N)=O)cc1-n1c(C)cc(OCc2ccccc2CNC(=O)Nc2cc(C(C)(C)C)nn2-c2ccc(O)c(Cl)c2)c(Cl)c1=O (stereo in doubt) [Example 159, (R)-3-[4-(2-{3-[5-tert-butyl-2-(3-chloro-4-hydroxy-phenyl)-2H-pyrazol-3-yl]-ureidomethyl}-benzyloxy)-3-chloro-6-methyl-2-oxo-2H-pyridin-1-yl]-N-(1-carbamoyl-ethyl)-4-methyl-benzamide]
IC50 (p38α): 2.5 nM
melting point: 192 to 193 °C

SMILES: CNC(=O)CNC(=O)c1ccc(C)c(-n2c(C)cc(OCc3ccccc3CNC(=O)Nc3cc(C(C)(C)C)nn3-c3ccc(O)c(Cl)c3)c(Cl)c2=O)c1 [Example 156, 3-[4-(2-{3-[5-tert-butyl-2-(3-chloro-4-hydroxy-phenyl)-2H-pyrazol-3-yl]-ureidomethyl}-benzyloxy)-3-chloro-6-methyl-2-oxo-2H-pyridin-1-yl]-4-methyl-N-methylcarbamoylmethyl-benzamide]
IC50 (p38α): 3.5 nM
melting point: 209 to 211 °C

SMILES: Cc1ccc(C(=O)NCCO)cc1-n1c(C)cc(OCc2ccccc2CNC(=O)Nc2cc(C(C)(C)C)nn2-c2cccc(OCCO)c2)c(Cl)c1=O [Example 132, 3-{4-[2-(3-{5-tert-Butyl-2-[3-(2-hydroxy-ethoxy)-phenyl]-2H-pyrazol-3-yl}-ureidomethyl)-benzyloxy]-3-chloro-6-methyl-2-oxo-2H-pyridin-1-yl}-N-(2-hydroxy-ethyl)-4-methyl-benzamide]
melting point: 162 to 163 °C

Other lines, results leading:

IC50 (p38α): 1.4 nM
melting point: 158 to 160 °C
SMILES: Cc1ccc(C(=O)NCCN(C)C)cc1-n1c(C)cc(OCc2ccc(F)cc2CNC(=O)Nc2cc(C(C)(C)C)nn2-c2cccc(OCCO)c2)c(Cl)c1=O [Example 178]

IC50 (p38α): 1.7 nM
melting point: 179 to 181 °C
SMILES: CNC(=O)CNC(=O)c1ccc(C)c(-n2c(C)cc(OCc3ccccc3CNC(=O)Nc3cc(C(C)(C)C)nn3-c3ccc(Cl)c(O)c3)c(Cl)c2=O)c1 [Example 167, 3-[4-(2-{3-[5-tert-Butyl-2-(4-chloro-3-hydroxy-phenyl)-2H-pyrazol-3-yl]-ureidomethyl}-benzyloxy)-3-chloro-6-methyl-2-oxo-2H-pyridin-1-yl]-4-methyl-N-methylcarbamoylmethyl-benzamide]
